# Where two headings read alike, the source gives them in different places. Where no end group is shown, it is not given here.
# Columns and labels:
# [1] = system: S. aureus USA300 LAC; assay: microbe, parasite or virus in culture; type: cell-based, Staphylococcus aureus
# How it was run: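 Broth microdilution with twofold peptide dilutions, using exponential-phase bacteria at about 10^5 CFU/mL in MHB, incubated overnight at 37 °C and read at OD600. MIC, reported as a range, is the peptide concentration with no growth. Some tests used diluted MHB/TSB/LB, adjusted pH, or added NaCl or human serum.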
# [2] = system: E. coli E423-17; type: cell-based, Escherichia coli; conditions: E423-17
# Description: (§1) The following resistant bacterial clinical strains were used in this study: S. aureus USA300 LAC, S. epidermidis 1457, E. coli E423-17, P. aeruginosa E411-17, K. pneumoniae E406-17, and A. baumannii B28-16. While the S. aureus USA300 strain is methicillin-resistant, most of the Gram-negative bacteria contain extended-spectrum beta-lactamase and are resistant to beta-lactam antibiotics. Peptide activity against bacteria was tested using an established lab protocol (Mishra, et al. (2017) Acta Biomater., 49:316-328). In brief, a peptide concentration gradient with twofold dilution was made in the 96-well polystyrene microplate at 10 μL per well. Bacteria were grown to the exponential phase (i.e., optical density at 600 nm≈0.5), diluted to ˜10^5 CFU/mL in different percentages of MHB, TSB, or LB, and partitioned into the 96-well microplate at 90 μL per well. […] They were diluted with autoclaved distilled water to obtain different percentages. The microplates were incubated at 37° C. overnight and read on a ChroMate™ 4300 microplate reader at 600 nm (GMI, Ramsey, MN). The peptide concentration in the wells without bacterial growth is the MIC. As is the convention, MIC values were represented as ranges.
# (§2) For pH effects on peptide activity, the pH of the medium was adjusted to a targeted pH for the autoclave and then remeasured at room temperature. For salt and serum effects on peptide activity, stock NaCl solution or human serum was added to the media.
# (§3) Peptide activity against bacteria were tested using the CLSI standard procedure with minor modifications (Clinical and Laboratory Standards Institute (2018) Performance standards for antimicrobial susceptibility testing, 9th ed.; Mishra, et al. (2019) Proc. Natl. Acad. Sci., 116(27):13517-13522). In brief, a peptide concentration gradient with twofold dilution was made in the 96-well polystyrene microplate at 10 μL per well. Bacteria were grown to the exponential phase (i.e., optical density at 600 nm≈0.5), diluted to ˜10^5 CFU/mL in MHB, and partitioned into the 96-well microplate at 90 μL per well. The microplates were incubated at 37° C. overnight and read on a ChroMate® 4300 Microplate Reader at 600 nm (GMI, Ramsey, MN). The peptide concentration in the wells without bacterial growth is the minimal inhibitory concentration (MIC). As the convention, MIC values were represented as ranges.
# (§4) For pH effects on peptide activity, the pH of the medium was adjusted to a targeted pH for autoclave and then remeasured at room temperature. For salt and serum effects on peptide activity, stock NaCl solution or human serum were added to the media.
# [3] = system: S. epidermidis 1457; assay: microbe, parasite or virus in culture; type: cell-based, Staphylococcus epidermidis; conditions: for MIC: read-out: Antimicrobial activity (MIC) S. epidermidis 1457
# Description: as §1, §3
# [4] = system: A. baumannii B28-16; type: cell-based, Acinetobacter baumannii; conditions: B28-16
# Description: as §1, §3
# [5] = system: P. aeruginosa E411-17; assay: microbe, parasite or virus in culture; type: cell-based, Pseudomonas aeruginosa; conditions: for MIC: read-out: Antimicrobial activity (MIC)
# Description: as §1, §2, §3, §4
# [6] = system: human red blood cells; assay: Hemolytic assay; type: cell-based; conditions: red cells of human
# Description: The hemolytic effects of peptides were evaluated using a method with minor modifications (Lakshmaiah Narayana, et al. (2021) ACS Infect. Dis., 7:1795-1808). Human red blood cells (hRBCs, UNMC Blood Bank) were washed (3×) with blood bank saline (isotonic solution 0.90% w/v, Fisher). Cells were diluted to 2% using the saline solution, and aliquots of 90 μL were added to a 96-well polystyrene microplate containing 10 μL of serially diluted peptide solutions. After incubation at 37° C. for 1 hour, plates were centrifuged at 500 g for 5 minutes. Aliquots of the supernatant were transferred to a 96-well microplate. The amount of hemoglobin released was measured at 545 nm by using a ChroMate™ microplate reader. […] HC50 is defined as the concentration of the peptide that caused 50% lysis.
# The hemolytic effects of peptides were evaluated (Narayana, et al. (2020) Proc. Natl. Acad. Sci., 117(32):19446-9454). In brief, human red blood cells (UNMC Blood Bank) were washed (3×) and diluted to 2% using the saline solution. Aliquots of 90 μL were mixed with 10 μL of serially diluted peptide solutions. After incubation at 37° C. for 1 hour, plates were centrifuged at 500 g for 5 minutes and aliquots of the supernatant were transferred to a new 96-well microplate to measure the amount of hemoglobin released at 545 nm (relative to 1% Triton® X-100) using a ChroMate® Microplate Reader.
# [7] = Cytotoxicity assay (MTS); type: cell-based; conditions: human, HepG2 cells, read-out: LC50
# Description: (§5) HepG2 cells were cultured in ATCC-formulated Eagle's Minimum Essential Medium with 10% FBS. A549 cells were grown in ATCC-formulated F-12K Medium containing 10% FBS.
# [8] = system: K. pneumoniae E406-17; type: cell-based, Klebsiella pneumoniae
# Description: as §1, §3
# [9] = system: P. aeruginosa E416-17; type: cell-based, Pseudomonas aeruginosa
# Description: as §3
# [10] = system: human keratinocyte HaCaT cells; assay: Cell viability assay (MTS); type: cell-based
# Description: Human keratinocyte HaCaT cells were grown in DMEM/high glucose (Hyclone, UT) containing 10% fetal bovine serum (Mediatech, Corning, Manassas, VA). […] The mixture was incubated at 37° C. in 5% CO2 for 24 hours.
# as §5
# [11] = USA300, pH 6.21, read-out: Antimicrobial activity (MIC)
# [12] = USA300, pH 7.22, read-out: Antimicrobial activity (MIC)
# [13] = USA300, pH 8.13, read-out: Antimicrobial activity (MIC)
# [14] = USA300, read-out: Antimicrobial activity (MIC)
Substance,"MIC [1, 11]","MIC [1, 12]","MIC [1, 13]","MIC [1, 14]",Antimicrobial activity (MIC) E. coli E423-17 [2],Antimicrobial activity (MIC) A. baumannii B28-16 [4],Antimicrobial activity (MIC) P. aeruginosa E411-17 ([5]; E411-17),"MIC ([5]; E411-17, pH 6.21)","MIC ([5]; E411-17, pH 8.13)","Hemolysis (HC10), 10% hemolytic concentration [6]",CC50 at 24 h [7],MIC K. pneumoniae E406-17 [8],MIC P. aeruginosa E416-17 [9],also measured
RWWKKWWGK-NH2 [RK-9+],>32 µM,8 µM,4 µM,32 µM,8 µM,>32 µM,8 to 16 µM,32 µM,4 µM,> 400 µM,> 100 µM,,,"Antimicrobial activity (MIC) ([1]; USA300): 16 to 32 µM; Antimicrobial activity (MIC) S. aureus USA300 ([1]; USA300): 8 to 16 µM; MIC [3]: 16 µM; Antimicrobial activity (MIC) ([5]; E411-17, pH 7.22): 8 to 16 µM; MIC ([5]; E411-17): >32 µM"
LWGRFFRKWK-NH2 [LL-10+],>32 µM,16 µM,4 µM,> 32 µM,32 µM,>32 µM,8 to 16 µM,16 µM,8 µM,> 400 µM,> 100 µM,>32 µM,8 µM,"MIC S. aureus USA300 ([1]; USA300): 16 µM; MIC ([1]; USA300, read-out: Antimicrobial activity (MIC) S. aureus USA300): 16 µM; MIC E. coli E423-17 [2]: 32 µM; MIC [3]: 32 µM; MIC ([5]; E411-17, pH 7.22): 8 µM; MIC ([5]; E411-17): >32 µM"
KWKRFFRGWL-NH2 [RetroLL-10+],,,,,,,,,,,,>32 µM,4 µM,
RRWWRWWL-NH2 [W544],,,,,,,,,,,,,,Activity (MIC) K. pneumoniae [8]: 8 to 16 µM; Activity (MIC) A. baumannii [4]: 8 to 16 µM; Activity (MIC) P. aeruginosa ([5]; E411-17): 4 µM; HC50 (50% hemolysis) [6]: about 80 μM; toxicity to human HaCaT skin cells [10]: more toxic than the other peptides
KRWWQWWK-NH2 [KR-8+],>32 µM,8 µM,8 µM,16 µM,4 µM,16 to 32 µM,8 µM,8 µM,8 µM,300 µM,12.5 µM,,,"Antimicrobial activity (MIC) ([1]; USA300): 16 to 32 µM; Antimicrobial activity (MIC) S. aureus USA300 ([1]; USA300): 8 to 16 µM; Antimicrobial activity (MIC) S. epidermidis 1457 [3]: 16 to 32 µM; MIC ([5]; E411-17, pH 7.22): 8 µM"
KRIWQRWK-NH2 [W540],,,,,,,,,,,,,,Activity (MIC) S. aureus ([1]; USA300): >32 µM; Activity (MIC) E.coli [2]: >32 µM; Activity (MIC) K. pneumoniae [8]: >32 µM; Activity (MIC) A. baumannii [4]: >32 µM; Activity (MIC) P. aeruginosa ([5]; E411-17): >32 µM; HC50 (50% hemolysis) [6]: ~150 µM; toxicity to human HaCaT skin cells [10]: more toxic than the other peptides
VWNRLFRKWR-NH2 [RetroRIK-10++],,,,,,,,,,,,>32 µM,16 µM,

# — patent US20250101062A1, “ANTIMICROBIAL PEPTIDES” (Board of Regents of the University of Nebraska, priority 2023, published 2025)
